Results published in patent US5792457A, “Antibody recognizing endothelial cell ligand for leukocyte CR3” (priority 1995, dated 1998).

Tested on: blood brain barrier permeability (CSF protein)
Assay: Rabbit model for meningitis: protein in CSF (blood brain barrier permeability)
Type: in vivo, New Zealand white rabbits
Conditions: for Total protein in CSF, 6 hours: 6 hours after inoculation (Example 11, 1 μM peptide; FHA 0.1 μM); for Total protein in CSF, 7 hours: 7 hours after inoculation (Example 11, 1 μM peptide; FHA 0.1 μM); for protein influx into CSF and generation of lactate (in words): 10 μM peptides (Table 10); for Protein in CSF: 6 hours after challenge
Experimental: The rabbit model was performed according to an established protocol. Specific pathogen free, New Zealand white rabbits (2 kg; Hare Marland, Nutley, N.J.) were anesthetized with valium (2.5 mg/kg, subcutaneously, Hoffman-LaRoche, Nutley, N.J.), ketamine (35 mg/kg, intra-muscularly, Aveco, Fort Dodge, Iowa) and xylazine (5 mg/kg, intramuscularly, Miles Laboratories, Shawnee, Kans.) and a helmet of dental acrylic was affixed to the calvarium. Twenty four hours later, the rabbits were anesthetized with ethyl carbamate (1.75 g/kg; Aldrich Chemical Co., Milwaukee, Wis.) and pentobarbital (15 mg/kg; Abbott Laboratories, Abbott Park, Ill.) and placed in a stereotaxic frame. A spinal needle was introduced into the cisterna magna and 300 μl of CSF was withdrawn. The animals were challenged intracisternally with 10^8 heat killed, unencapsulated pneumococcus strain R6 introduced in 200 μl of saline (time 0). One hour later, animals were treated with peptides dissolved in 1 ml of saline by intravenous injection into the right marginal ear vein. The concentration of FHA was 0.1 μM and that of the FHA Ia, Factor X II, and scrambled FHA II peptides was 10 μM. For the acetyl-FHA II, acetyl/amide-FHA II, dimer of FHA II and trimer of FHA II peptides, the concentration was 10^-3 μM. The concentration of FHA II is given in the results section. Samples of CSF were withdrawn at hourly intervals after pneumococcal inoculation and leukocyte density was measured using a cell counter (Coulter Electronics Inc., Hialeah, Fla.). CSF samples were centrifuged at 10,000×g for 5 minutes and the supernatant was stored at -70° C. until assayed for protein concentration using the bicinchoninic acid method (ECA Kit, Pierce Chemical Co., Rockford, Ill.) and for lactate concentration (Lactate Detection Kit, Sigma, St. Louis, Mo.). Statistically significant differences between treatments were determined by a one way analysis of variance test.
Loss of barrier function of the cerebral capillary endothelium during inflammation is reflected by an influx of serum proteins into the CSF. […] To examine if the peptides were able to ameliorate these measures of cerebral injury, CSF protein and lactate concentrations were measured hourly in peptide-treated and control animals (Table 10).
Mean values for CSF lactate and protein at time 0 were 18.6±5.8 and 0.8±0.2 respectively. Ten control animals received phosphate-buffered saline. The concentration of FHA II intravenously injected one hour after challenge with pneumococci was 10 μM. Values represent mean±standarddeviation of concentrations in CSF at 6 hours after pneumococcal challenge (n≥4 for peptide treated animals; n=4 for FHA). *Statistically significant difference as compared to control at p<0.02 (Mann-Whitney test).
Again, mean values for CSF lactate and protein at time 0 were 18.6±5.8 and 0.8±0.2, respectively. Ten control animals received phosphate-buffered saline. The concentrations of FHA II intravenously injected was 10^-3 μM. Values represent mean±standard deviation of concentrations in CSF at 6 hours after pneumococcal administration (n≥4 per group).
The anti-inflammatory effects of the administered peptides were assessed in the rabbit model for meningitis by the procedures described in Example 10. The animals received 1 ml of 1 uM peptide intravenously. In a slight departure from the protocol described in Example 10, samples of blood were drawn from the left marginal ear vein 30 minutes after the administration of the peptides to determine peripheral leukocyte concentrations.
Values represent mean ±standard deviation of at least four animals per group. ^1 Time after intracisternal inoculation of pneumococci. *Statistically significant difference as compared to control at p<0.02 (Mann-Whitney test).

Row | Substance | Total protein in CSF, 6 hours [mg/mL] | Total protein in CSF, 7 hours [mg/mL] | protein influx into CSF and generation of lactate (in words) | Protein in CSF (peptides 10 μM, FHA 0.1 μM) [mg/ml CSF] | also measured
1 | AADPHQGVLAQGDIIMDAKG [FHA Cc] | 1.36 ± 0.16 | 1.90 ± 0.22 |  |  | 
2 | Ac-ETKEVDG-NH2 [Acetyl/Amide-FHA II] |  |  | significantly reduced protein influx into the CSF and generation of lactate | 1.2 ± 0.6 | 
3 | DEETVK [scrambled FHA II, reference compound] |  |  |  | 1.9 ± 0.3 | 
4 | ETKEVDG [FHA II] |  |  | significantly reduced protein influx into the CSF and generation of lactate | 1.4 ± 0.6 | protein and lactate in CSF (in words) (10^-3 μM): ineffective at this dose; Protein in CSF (10^-3 μM): 2.45 ± 0.22 mg/ml CSF
5 | GTLLLRNDALTENGTVTISA [FHA Cd] | 1.71 ± 0.19 | 2.03 ± 0.57 |  |  | 
6 | GYDTKQEDG [Factor X II] |  |  | no significant reduction | 1.6 ± 0.7 | 
7 | LGYQAK (UniProt P12255 1979-1984, looked up, fragment) [FHA Ia] |  |  | no significant reduction | 1.8 ± 0.4 | 
8 | RADPHQGVLAQGDIIMDAKG [FHA Cb] | 1.91 ± 0.24 | 2.28 ± 0.28 |  |  | 
9 | RGDPHQGVLAQGDIIMDAKG [FHA Ca] | 1.18 ± 0.39 | 1.69 ± 0.41 |  |  | influx of serum protein into CSF (in words) (1 μM, entire observation period): reduced the influx of serum protein significantly during the entire observation period
10 | native FHA: Filamentous hemagglutinin, 220kD surface associated protein of Bordetella pertussis (List Biologicals) | 1.70 ± 0.33 | 1.86 ± 0.76 | significantly protective for protein influx and lactate generation | 1.3 ± 0.3 | 
